The values below come from US12139520B2 (priority 2020, dated 2024).

Data set [1] is described as follows: Physical stability of peptide analogues (Thioflavin T fibrillation). It counts as physicochemical. As to conditions: maximum ThT signal normalized between hAMY maximum and buffer background; 40° C., shaking, four days; pH 7 per table title. In a few lines:
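1 h in 50 mM NaOAc pH 4 / 50 mM NaPi pH 7; + ThT 4 μM final; 40 °C, 700 rpm linear shake 5 min pre-read; ex 450, em 480 nm q10 min × 4 d; LOESS smoothing; max signal normalised to hAMY max vs buffer blank.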

For another data set, the target named is hAM1 receptor (Homo sapiens, UniProt O60895+Q16602). In words: cAMP assay for in vitro receptor activation, hAM1-R. Type of data set: cell-based. Conditions: cAMP assay, hAM1 receptor; read-out: hAM1R EC50. In a few lines: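 Receptor activation, read as cAMP, was assessed in thawed cells of a monoclonal hAM1-overexpressing stable line, plated at 8000 cells/well in DPBS supplemented with 0.05% casein and 0.5 mM IBMX.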

For a further data set, the target named is T1, hAMY3 receptor (Homo sapiens, UniProt O60896+P30988).
T1 sequence (P30988 25-474): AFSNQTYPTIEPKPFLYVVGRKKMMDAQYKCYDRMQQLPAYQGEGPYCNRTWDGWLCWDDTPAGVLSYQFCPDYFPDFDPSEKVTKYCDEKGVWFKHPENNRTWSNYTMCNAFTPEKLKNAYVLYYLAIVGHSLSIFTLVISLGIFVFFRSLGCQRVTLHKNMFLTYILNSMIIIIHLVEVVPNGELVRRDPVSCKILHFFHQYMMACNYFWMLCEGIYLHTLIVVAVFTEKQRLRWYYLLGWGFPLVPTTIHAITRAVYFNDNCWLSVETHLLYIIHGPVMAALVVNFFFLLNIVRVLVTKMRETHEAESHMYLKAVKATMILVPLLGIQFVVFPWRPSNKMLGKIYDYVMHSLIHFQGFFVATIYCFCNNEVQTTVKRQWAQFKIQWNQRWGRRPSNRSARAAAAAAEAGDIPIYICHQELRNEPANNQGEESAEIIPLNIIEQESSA
T1 sequence (O60896 24-148 partner): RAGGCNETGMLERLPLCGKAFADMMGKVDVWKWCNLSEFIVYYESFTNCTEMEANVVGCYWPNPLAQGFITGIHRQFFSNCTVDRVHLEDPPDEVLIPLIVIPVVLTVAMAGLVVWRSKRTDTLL
In words: cAMP assay for in vitro receptor activation, hAMY3-R. Type of data set: cell-based. Conditions: cAMP assay, hAMY3 receptor; read-out: hAMY3R EC50. In a few lines:
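Monoclonal cell line stably overexpressing human AMY3 receptor, 2000 cells/well in DPBS with 0.05% casein and 0.5 mM IBMX. Stimulated 30 min at room temperature with graded compound doses, human amylin as positive control. cAMP accumulation read by TR-FRET after one hour.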

Molecules are shown by their SMILES. Bridge positions count the residues as written; N and C are the ends. Square brackets hold non-standard residues; d marks the D form. Peptide text beside a SMILES is read from it. Hyp = O=C(O)[C@@H]1C[C@@H](O)CN1 A value given as a limit tells only on which side of the number the result lay.

hAM1 receptor, sequence (Q16602 23-461): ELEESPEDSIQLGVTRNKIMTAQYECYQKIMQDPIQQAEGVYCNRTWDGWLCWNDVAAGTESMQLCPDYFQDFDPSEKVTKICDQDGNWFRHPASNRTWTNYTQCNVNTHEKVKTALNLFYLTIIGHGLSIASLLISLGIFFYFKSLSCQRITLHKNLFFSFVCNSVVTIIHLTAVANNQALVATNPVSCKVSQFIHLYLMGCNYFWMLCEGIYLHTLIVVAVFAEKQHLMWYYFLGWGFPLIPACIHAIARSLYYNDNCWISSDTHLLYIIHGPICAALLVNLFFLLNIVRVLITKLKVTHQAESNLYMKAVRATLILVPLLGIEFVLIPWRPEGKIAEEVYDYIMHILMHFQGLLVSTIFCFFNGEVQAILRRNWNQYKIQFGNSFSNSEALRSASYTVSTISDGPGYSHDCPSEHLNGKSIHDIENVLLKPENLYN
hAM1 receptor, sequence (O60895 43-175 partner): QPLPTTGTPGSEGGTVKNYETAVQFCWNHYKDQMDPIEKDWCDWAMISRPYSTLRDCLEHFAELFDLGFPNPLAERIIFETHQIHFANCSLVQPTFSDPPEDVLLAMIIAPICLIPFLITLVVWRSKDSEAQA

Take `CC[C@H](C)[C@H](NC(=O)[C@H](CCC(N)=O)NC(=O)[C@H](Cc1c[nH]cn1)NC(=O)[C@H](C)NC(=O)[C@H](CC(C)C)NC(=O)[C@H](Cc1c[nH]c2ccccc12)NC(=O)[C@H](CCC(N)=O)NC(=O)[C@@H](NC(=O)[C@@H](NC(=O)[C@@H]1CSSC[C@H](NC(=O)[C@@H](N)CCCCN)C(=O)N[C@@H](CC(N)=O)C(=O)N[C@@H]([C@@H](C)O)C(=O)N[C@@H](C)C(=O)N[C@@H]([C@@H](C)O)C(=O)N1)[C@@H](C)O)C(C)C)C(=O)N[C@@H](Cc1ccc(O)cc1)C(=O)N[C@@H](CCC(N)=O)C(=O)N[C@@H](Cc1ccccc1)C(=O)N[C@@H](C)C(=O)N[C@@H](CC(=O)O)C(=O)N[C@@H](CCCCN)C(=O)N[C@@H](CC(=O)O)C(=O)N[C@@H](CCCCN)C(=O)N[C@@H](CC(=O)O)C(=O)N[C@@H](CC(N)=O)C(=O)N[C@H](C(=O)N[C@@H](C)C(=O)N1CCC[C@H]1C(=O)N1CCC[C@H]1C(=O)N[C@H](C(=O)N[C@@H](CC(N)=O)C(=O)N[C@H](C(=O)NCC(=O)N[C@@H](CO)C(=O)N[C@@H](CC(N)=O)C(=O)NCC(=O)N1C[C@H](O)C[C@H]1C(N)=O)C(C)C)[C@@H](C)O)C(C)C` [compound 313] (H-KCNTATCTVQWLAHQIYQFADKDKDNVAPPTNVGSNG[Hyp]-NH2; disulfide 2-7; N-terminus assumed): the “Max ThT signal (%)” value in data set [1] was 15.050%. In addition, the figures for the concentration giving a half-maximal response (EC50) on hAM1 receptor and on hAMY3 receptor were over 5000 nM and 0.004 nM, respectively.
Taken in the same sequence, the figures for `CC[C@H](C)[C@H](NC(=O)[C@H](CCC(N)=O)NC(=O)[C@H](Cc1c[nH]cn1)NC(=O)[C@H](C)NC(=O)[C@H](CC(C)C)NC(=O)[C@H](Cc1c[nH]c2ccccc12)NC(=O)[C@H](CCC(N)=O)NC(=O)[C@@H](NC(=O)[C@@H](NC(=O)[C@@H]1CSSC[C@H](NC(=O)[C@@H](N)CCCCN)C(=O)N[C@@H](CC(N)=O)C(=O)N[C@@H]([C@@H](C)O)C(=O)N[C@@H](C)C(=O)N[C@@H]([C@@H](C)O)C(=O)N1)[C@@H](C)O)C(C)C)C(=O)N[C@@H](Cc1ccc(O)cc1)C(=O)N[C@@H](CCC(N)=O)C(=O)N[C@@H](Cc1ccccc1)C(=O)N[C@H](C(=O)N[C@@H](CC(=O)O)C(=O)N[C@@H](CCCCN)C(=O)N[C@@H](CC(=O)O)C(=O)N[C@@H](CCCCN)C(=O)N[C@@H](C)C(=O)N[C@@H](CC(N)=O)C(=O)N[C@H](C(=O)N[C@@H](C)C(=O)N1CCC[C@H]1C(=O)N1CCC[C@H]1C(=O)N[C@H](C(=O)N[C@@H](CC(N)=O)C(=O)N[C@H](C(=O)NCC(=O)N[C@@H](CO)C(=O)N[C@@H](CC(N)=O)C(=O)NCC(=O)N1C[C@H](O)C[C@H]1C(N)=O)C(C)C)[C@@H](C)O)C(C)C)[C@@H](C)O` [compound 314] (H-KCNTATCTVQWLAHQIYQFTDKDKANVAPPTNVGSNG[Hyp]-NH2; disulfide 2-7; N-terminus assumed) were 11.900%, over 5000 nM and 0.008 nM.
Taken in the same sequence, the figures for `CC[C@H](C)[C@H](NC(=O)[C@H](CCC(N)=O)NC(=O)[C@H](Cc1c[nH]cn1)NC(=O)[C@H](C)NC(=O)[C@H](CC(C)C)NC(=O)[C@H](Cc1c[nH]c2ccccc12)NC(=O)[C@H](CCC(N)=O)NC(=O)[C@@H](NC(=O)[C@@H](NC(=O)[C@@H]1CSSC[C@H](NC(=O)[C@@H](N)CCCCN)C(=O)N[C@@H](CC(N)=O)C(=O)N[C@@H]([C@@H](C)O)C(=O)N[C@@H](C)C(=O)N[C@@H]([C@@H](C)O)C(=O)N1)[C@@H](C)O)C(C)C)C(=O)N[C@@H](Cc1ccc(O)cc1)C(=O)N[C@@H](CCC(N)=O)C(=O)N[C@@H](Cc1ccccc1)C(=O)N[C@H](C(=O)N[C@@H](CC(=O)O)C(=O)N[C@@H](CCCCN)C(=O)N[C@@H](CC(=O)O)C(=O)N[C@@H](CCCCN)C(=O)N[C@@H](CC(=O)O)C(=O)N[C@@H](CC(N)=O)C(=O)N[C@@H](C)C(=O)N[C@@H](C)C(=O)N1CCC[C@H]1C(=O)N1CCC[C@H]1C(=O)N[C@H](C(=O)N[C@@H](CC(N)=O)C(=O)N[C@H](C(=O)NCC(=O)N[C@@H](CO)C(=O)N[C@@H](CC(N)=O)C(=O)NCC(=O)N1C[C@H](O)C[C@H]1C(N)=O)C(C)C)[C@@H](C)O)[C@@H](C)O` [compound 315] (H-KCNTATCTVQWLAHQIYQFTDKDKDNAAPPTNVGSNG[Hyp]-NH2; disulfide 2-7; N-terminus assumed) were 17.150%, over 5000 nM and 0.012 nM.
Regarding `CC[C@H](C)[C@H](NC(=O)[C@H](CCC(N)=O)NC(=O)[C@H](Cc1c[nH]cn1)NC(=O)[C@H](C)NC(=O)[C@H](CC(C)C)NC(=O)[C@H](Cc1c[nH]c2ccccc12)NC(=O)[C@H](CCC(N)=O)NC(=O)[C@@H](NC(=O)[C@@H](NC(=O)[C@@H]1CSSC[C@H](NC(=O)[C@@H](N)CCCCN)C(=O)N[C@@H](CC(N)=O)C(=O)N[C@@H]([C@@H](C)O)C(=O)N[C@@H](C)C(=O)N[C@@H]([C@@H](C)O)C(=O)N1)[C@@H](C)O)C(C)C)C(=O)N[C@@H](Cc1ccc(O)cc1)C(=O)N[C@@H](CCC(N)=O)C(=O)N[C@@H](Cc1ccccc1)C(=O)N[C@H](C(=O)N[C@@H](CC(=O)O)C(=O)N[C@@H](CCCCN)C(=O)N[C@@H](CC(=O)O)C(=O)N[C@@H](CCCCN)C(=O)N[C@@H](CC(=O)O)C(=O)N[C@@H](CC(N)=O)C(=O)N[C@H](C(=O)N[C@@H](C)C(=O)N1CCC[C@H]1C(=O)N[C@@H](C)C(=O)N[C@H](C(=O)N[C@@H](CC(N)=O)C(=O)N[C@H](C(=O)NCC(=O)N[C@@H](CO)C(=O)N[C@@H](CC(N)=O)C(=O)NCC(=O)N1C[C@H](O)C[C@H]1C(N)=O)C(C)C)[C@@H](C)O)C(C)C)[C@@H](C)O` [compound 316] (H-KCNTATCTVQWLAHQIYQFTDKDKDNVAPATNVGSNG[Hyp]-NH2; disulfide 2-7), in data set [1], the “Max ThT signal (%)” value is 20.450%. In addition, the figures for the EC50 on hAM1 receptor and at hAMY3 receptor were over 5000 nM and 0.012 nM, respectively.
Taken in the same sequence, the figures for `CC[C@H](C)[C@H](NC(=O)[C@H](CCC(N)=O)NC(=O)[C@H](Cc1c[nH]cn1)NC(=O)[C@H](C)NC(=O)[C@H](CC(C)C)NC(=O)[C@H](Cc1c[nH]c2ccccc12)NC(=O)[C@H](CCC(N)=O)NC(=O)[C@@H](NC(=O)[C@@H](NC(=O)[C@@H]1CSSC[C@H](NC(=O)[C@@H](N)CCCCN)C(=O)N[C@@H](CC(N)=O)C(=O)N[C@@H]([C@@H](C)O)C(=O)N[C@@H](C)C(=O)N[C@@H]([C@@H](C)O)C(=O)N1)[C@@H](C)O)C(C)C)C(=O)N[C@@H](Cc1ccc(O)cc1)C(=O)N[C@@H](CCC(N)=O)C(=O)N[C@@H](Cc1ccccc1)C(=O)N[C@H](C(=O)N[C@@H](CCCCN)C(=O)N[C@@H](CC(=O)O)C(=O)N[C@@H](CCCCN)C(=O)N[C@@H](CC(=O)O)C(=O)N[C@@H](CC(N)=O)C(=O)N[C@H](C(=O)N[C@@H](C)C(=O)N1CCC[C@H]1C(=O)N1CCC[C@H]1C(=O)N[C@H](C(=O)N[C@@H](CC(N)=O)C(=O)N[C@H](C(=O)NCC(=O)N[C@@H](CO)C(=O)N[C@@H](CC(N)=O)C(=O)NCC(=O)N1C[C@H](O)C[C@H]1C(N)=O)C(C)C)[C@@H](C)O)C(C)C)[C@@H](C)O` [compound 317] (H-KCNTATCTVQWLAHQIYQFTKDKDNVAPPTNVGSNG[Hyp]-NH2; disulfide 2-7; N-terminus assumed) were 5.550%, over 5000 nM and 0.004 nM.

For orientation: EC50 means the concentration at which the effect is half-maximal.
